Patent publication US20230405026A1, “A Method of Treating Depression by Immune Modulation” (Mynd Life Sciences Inc., priority 2020, published 2023)

Legend:
[1] = system: IL-4; assay: Escitalopram induction of IL-4 in RAW macrophages, real time RT-PCR; format: cell-based; settings: RAW macrophage cell line, 0.3 mM Escitalopram, 1 hour, normalized to housekeeping gene, vs DMSO control (FIG. 1)
Procedure: (§1) FIG. 1—illustrates that Escitalopram induces ABCF1 in a Macrophage cell line: RAW macrophages were plated at 1×10^5 cells/well and cultured for 2 days. The cells were incubated with 0.3 mM Escitalopram for 1 hour, and then harvested for total RNA, which was extracted for real time RT-PCR specific for ABCF1 and IL-4. CT values were normalized with CT value for the housekeeping gene from the DMSO control. The difference in the expression after drug treatment is consistent with polarization towards an M2-like phenotype (data were consistent in 3 separate experiments).
(§2) Additionally, noradrenergic or serotonin-norepinephrine reuptake inhibitors used to treat major depressive disorder have anti-inflammatory properties in vitro^55. […] Mechanistically, antidepressants likely mediate this through a reduction in pro-inflammatory cytokines IL-1b, TNFα, and IL-6 with a reciprocal increase in anti-inflammatory cytokines including […]. Studies have also shown that single nucleotide polymorphisms in IL-6 and IL-11, and mRNA levels of TNFα, are predictive of clinical response to the SSRI, escitalopram^63,64. Also, escitalopram modulates mRNA levels of cytokines in mouse brain^65 and decreases cytokine mRNA levels in the circulating immune cells of depression patients^60. […]

[2] = system: ABCF1; settings: peripheral blood mononuclear cells of patients responding to escitalopram treatment; cited from earlier work
[3] = system: ABCF1; assay: Escitalopram induction of ABCF1 in RAW macrophages, real time RT-PCR; format: cell-based
Procedure: as §1, §2

[4] = system: ABCF1; assay: Effect of psylocibin, psylocin and analogs on ABCF1 transcription in RAW264.7, qPCR; format: cell-based; settings: RAW264.7, 10 nM, 100 nM, 500 nM, normalized against GAPDH (FIG. 2)
Procedure: FIG. 2—illustrates the effect of psylocibin, psylocin and their analogs on ABCF1 transcription in a macrophage cell line. Briefly, the Macrophage cell line RAW264.7 (ATCC) were grown to 80% confluency in growth media (DMEM+ 10% FBS+ glutamine). Dilutions of psylocibin, psylocin and their analogs were made at desired final concentrations for a Dose response experiment. The concentrations' used for this experiment are: 10 nM, 100 nM, 500 nM for Psilocin, Psylocibin, 4-Acetoxy-N, N-dimthyltryptamine, O-Acetyl Psilocin Fumerate, and 4-acetoxyindole. The cells were incubated for 2 hours and then harvested for total RNA, which was extracted for real time RT-PCR specific for ABCF1. Untreated cells were used as negative control and Escitalopram at 0.3 mM was used as a positive control to activate ABCF1 expression for all the experiments. ES=escitalopram; PSYB=Psylocibin; PSIC=Psilocin; DMT=4-Acetoxy-N, N-dimthyltryptamine; APF=O-Acetyl Psilocin Fumerate, and AOI=4-acetoxyindole.
Preparation of Cells: • 1. Macrophage cell line RAW264.7 (ATCC) were grown to 80% confluency in growth media (DMEM+10% FBS+glutamine). • 2. Dilutions of the drugs were made at desired final concentrations for a Dose response experiment. […]
• 1. […] Normalized against the expression level of GAPDH, the fold change expression level of ABCF1 was calculated and tabulated for all treatment conditions.

SMILES	induction of IL-4 expression [1]	transcription of ABCF1 in PBMCs [2]	induction of ABCF1 expression ([3]; RAW macrophage cell line, 0.3 mM Escitalopram, 1 hour, normalized to housekeeping gene, vs DMSO control (FIG. 1))	ABCF1 induction in a macrophage cell line (in words) ([3]; RAW macrophages, 0.3 mM, 1 hour (FIG. 1 legend))	ABCF1 transcription (in words) [4]
CN(C)CCC[C@@]1(c2ccc(F)cc2)OCc2cc(C#N)ccc21 [Escitalopram]	approximately 5 fold	increased the transcription	approximately 20 fold	induces ABCF1	
CN(C)CCc1c[nH]c2cccc(O)c12 [psylocin, 4-hydroxy-N,N-dimethyltryptamine]					upregulate ABCF1 transcription
